Values of other authors, collected in patent US6358910B1, “Detergent compositions” (Lever Brothers Company, divison of Conopco, Inc., priority 1997, dated 2002).

Conditions: grams of solid to form a saturated solution in 100 grams of water at 20° C.

Water Solubility (g/100 g) | Structure (SMILES)
15 g/100 g | O=P(O)(O)OP(=O)(O)OP(=O)(O)O [Sodium tripolyphosphate anhydrous]
>100 g/100 g | NC(N)=O [Urea]

Structure (SMILES) | Water Solubility (g/100 g)
O=BO[O-].[Na+] [Sodium perborate anhydrous] | 3.7 g/100 g
